Measured values from PubChem BioAssay AID1963973 (Molecular Pharmacology Branch, DTP, NCI, 2024).

Test system: 883617-216-R-J1-PDC tumor spheroids, viability
Assay: Anticancer human tumor 883617-216-R-J1-PDC patient-derived bladder carcinoma cell line growth inhibition [PI3K]
Settings: spheroids with HUVEC and MSC; for IC50: curve of first compound; for viability, T/C: stronger effect = lower value
Procedure, shortened: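 Complex 3D spheroids (cancer cells + endothelial HUVEC + mesenchymal stem cells); drug pairs of targeted agent x inavolisib/alpelisib/duvelisib/copanlisib; half-log series from ~Cmax, max 10 microM if Cmax unknown; endpoint viability.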

[1] = second compound 0.00316 µM, first compound 0.0316 µM
[2] = second compound 0.00316 µM, first compound 0.1 µM
[3] = second compound 0.00316 µM, first compound 0.316 µM
[4] = second compound 0.00316 µM, first compound 1 µM
[5] = second compound 0.00316 µM, first compound 3.16 µM
[6] = second compound 0.00316 µM, first compound 10 µM
[7] = second compound 0.01 µM, first compound 0.0316 µM
[8] = second compound 0.01 µM, first compound 0.1 µM
[9] = second compound 0.01 µM, first compound 0.316 µM
[10] = second compound 0.01 µM, first compound 1 µM
[11] = second compound 0.01 µM, first compound 3.16 µM
[12] = second compound 0.01 µM, first compound 10 µM
[13] = second compound 0.0316 µM, first compound 0.0316 µM
[14] = second compound 0.0316 µM, first compound 0.1 µM
[15] = second compound 0.0316 µM, first compound 0.316 µM
[16] = second compound 0.0316 µM, first compound 1 µM
[17] = second compound 0.0316 µM, first compound 3.16 µM
[18] = second compound 0.0316 µM, first compound 10 µM
[19] = second compound 0.1 µM, first compound 0.0316 µM
[20] = second compound 0.1 µM, first compound 0.1 µM
[21] = second compound 0.1 µM, first compound 0.316 µM
[22] = second compound 0.1 µM, first compound 1 µM
[23] = second compound 0.1 µM, first compound 3.16 µM
[24] = second compound 0.1 µM, first compound 10 µM
[25] = second compound 0.316 µM, first compound 0.0316 µM
[26] = second compound 0.316 µM, first compound 0.1 µM
[27] = second compound 0.316 µM, first compound 0.316 µM
[28] = second compound 0.316 µM, first compound 1 µM
[29] = second compound 0.316 µM, first compound 3.16 µM
[30] = second compound 0.316 µM, first compound 10 µM
[31] = second compound 1 µM, first compound 0.0316 µM
[32] = second compound 1 µM, first compound 0.1 µM
[33] = second compound 1 µM, first compound 0.316 µM
[34] = second compound 1 µM, first compound 1 µM
[35] = second compound 1 µM, first compound 3.16 µM
[36] = second compound 1 µM, first compound 10 µM
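Note: spheroids exposed to agents for 7 days before the viability read.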

Molecule C#Cc1c(F)ccc2cc(O)cc(-c3ncc4c(N5CC6CCC(C5)N6)nc(OCC56CCCN5CC(F)C6)nc4c3F)c12 (stereo unspecified) + CC(Nc1ccc2c(c1)OCCn1cc(N3C(=O)OCC3C(F)F)nc1-2)C(N)=O has an IC50 (second compound 0.00316 µM) of over 10000 nM, an IC50 (second compound 0.01 µM) of over 10000 nM and an IC50 (second compound 0.0316 µM) of 6510 nM. For the same molecule, the IC50 (second compound 0.1 µM) was under 31.6 nM, the IC50 (second compound 0.316 µM) was under 31.6 nM and the IC50 (second compound 1 µM) was under 31.6 nM. For the same molecule, the viability, T/C [1] was 85.3%, the viability, T/C [2] was 89.7% and the viability, T/C [3] was 84.8%. It also gave a viability, T/C [4] of 91.2%, a viability, T/C [5] of 79.6% and a viability, T/C [6] of 54.8%. It also gave a viability, T/C [7] of 87.9%, a viability, T/C [8] of 88.4% and a viability, T/C [9] of 88.3%. The viability, T/C [10] was 85%, the viability, T/C [11] was 74.3% and the viability, T/C [12] was 53.2%. It also gave a viability, T/C [13] of 79.9%, a viability, T/C [14] of 75.3% and a viability, T/C [15] of 64.9%. It also gave a viability, T/C [16] of 88.5%, a viability, T/C [17] of 62.4% and a viability, T/C [18] of 40.2%. It also gave a viability, T/C [19] of 41.1%, a viability, T/C [20] of 39.7% and a viability, T/C [21] of 42.7%. It also gave a viability, T/C [22] of 39.6%, a viability, T/C [23] of 31% and a viability, T/C [24] of 21%. For the same molecule, the viability, T/C [25] was 27.6%, the viability, T/C [26] was 21.4% and the viability, T/C [27] was 21.4%. It also gave a viability, T/C [28] of 24.6%, a viability, T/C [29] of 16.7% and a viability, T/C [30] of 16.8%. The viability, T/C [31] was 13.4%, the viability, T/C [32] was 16.9% and the viability, T/C [33] was 17.1%. The viability, T/C [34] was 12.8%, the viability, T/C [35] was 14.2% and the viability, T/C [36] was 8%.

CC(Cn1ccc(-c2ccc(C#N)c(Cl)c2)n1)NC(=O)c1cc(C(C)O)[nH]n1 (stereo unspecified) + CC(Nc1ccc2c(c1)OCCn1cc(N3C(=O)OCC3C(F)F)nc1-2)C(N)=O was tested, and the IC50 (second compound 0.00316 µM) was over 10000 nM, the IC50 (second compound 0.01 µM) was over 10000 nM and the IC50 (second compound 0.0316 µM) was over 10000 nM. It also gave an IC50 (second compound 0.1 µM) of under 31.6 nM, an IC50 (second compound 0.316 µM) of under 31.6 nM and an IC50 (second compound 1 µM) of under 31.6 nM. For the same molecule, the viability, T/C [1] was 86.4%, the viability, T/C [2] was 85.9% and the viability, T/C [3] was 84.1%. It also gave a viability, T/C [4] of 80.4%, a viability, T/C [5] of 90.8% and a viability, T/C [6] of 73.1%. It also gave a viability, T/C [7] of 84%, a viability, T/C [8] of 74.7% and a viability, T/C [9] of 80.1%. It also gave a viability, T/C [10] of 84%, a viability, T/C [11] of 90.5% and a viability, T/C [12] of 86.5%. For the same molecule, the viability, T/C [13] was 64.2%, the viability, T/C [14] was 79.4% and the viability, T/C [15] was 79.1%. For the same molecule, the viability, T/C [16] was 80.3%, the viability, T/C [17] was 74.8% and the viability, T/C [18] was 67.4%. For the same molecule, the viability, T/C [19] was 46.6%, the viability, T/C [20] was 49.3% and the viability, T/C [21] was 55.1%. For the same molecule, the viability, T/C [22] was 48.9%, the viability, T/C [23] was 43.7% and the viability, T/C [24] was 44.9%. It also gave a viability, T/C [25] of 25.3%, a viability, T/C [26] of 27.9% and a viability, T/C [27] of 27.9%. The viability, T/C [28] was 26.9%, the viability, T/C [29] was 26.8% and the viability, T/C [30] was 23.2%. For the same molecule, the viability, T/C [31] was 15.8%, the viability, T/C [32] was 15% and the viability, T/C [33] was 17%. The viability, T/C [34] was 14.9%, the viability, T/C [35] was 17.4% and the viability, T/C [36] was 17.3%.

CC1(C)CCC(Nc2ncc(C(F)(F)F)c(-c3c[nH]c4c(P(C)(C)=O)c(C#N)ccc34)n2)CN1 (stereo unspecified) + CC(Nc1ccc2c(c1)OCCn1cc(N3C(=O)OCC3C(F)F)nc1-2)C(N)=O gave an IC50 (second compound 0.00316 µM) of under 31.6 nM, an IC50 (second compound 0.01 µM) of under 31.6 nM and an IC50 (second compound 0.0316 µM) of under 31.6 nM. For the same molecule, the IC50 (second compound 0.1 µM) was under 31.6 nM, the IC50 (second compound 0.316 µM) was under 31.6 nM and the IC50 (second compound 1 µM) was under 31.6 nM. The viability, T/C [1] was 31.5%, the viability, T/C [2] was 17.9% and the viability, T/C [3] was 17.6%. The viability, T/C [4] was 14%, the viability, T/C [5] was 6.49% and the viability, T/C [6] was 0.36%. For the same molecule, the viability, T/C [7] was 30.4%, the viability, T/C [8] was 23.2% and the viability, T/C [9] was 19.7%. The viability, T/C [10] was 18.7%, the viability, T/C [11] was 6.21% and the viability, T/C [12] was 0.37%. It also gave a viability, T/C [13] of 30.2%, a viability, T/C [14] of 18.7% and a viability, T/C [15] of 21.8%. It also gave a viability, T/C [16] of 14.3%, a viability, T/C [17] of 4.74% and a viability, T/C [18] of 0.17%. It also gave a viability, T/C [19] of 25.5%, a viability, T/C [20] of 17.6% and a viability, T/C [21] of 19.1%. The viability, T/C [22] was 12.2%, the viability, T/C [23] was 4.58% and the viability, T/C [24] was 0.1%. It also gave a viability, T/C [25] of 21.6%, a viability, T/C [26] of 15.4% and a viability, T/C [27] of 14.2%. It also gave a viability, T/C [28] of 10.8%, a viability, T/C [29] of 3% and a viability, T/C [30] of 0.12%. For the same molecule, the viability, T/C [31] was 13.9%, the viability, T/C [32] was 10.4% and the viability, T/C [33] was 9.92%. The viability, T/C [34] was 12.2%, the viability, T/C [35] was 2.77% and the viability, T/C [36] was 0.33%.
